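How tested: cells in 96-well plates exposed to compound for 48 hours at five concentrations. Here, GI50 denotes the concentration required for 50% inhibition of growth.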 Calls of active or inactive are those of the source. No stated cut-off is given here; in the data, active = GI50 up to about 1.1 µM and inactive = higher.
Columns and labels:
Test in all cases: NCI anticancer screen, dose series, 48 h
[1] = tested on: TK-10
[2] = tested on: SNB-19
[3] = tested on: CAKI-1
[4] = tested on: RXF 393
[5] = tested on: KM12
[6] = tested on: M14
[7] = tested on: NCI-H226
[8] = tested on: SW-620
[9] = tested on: 786-0
[10] = tested on: LOX IMVI
[11] = tested on: HT-29
[12] = tested on: UACC-257
[13] = tested on: SF-295
[14] = tested on: CCRF-CEM
[15] = tested on: COLO 205

Measured: GI50

COc1ccc(OC)c2c1CC(C(=O)O)(C(=O)O)CC2=O
inactive: [1] > 100 µM | [2] > 100 µM | [3] > 100 µM | [4] > 100 µM | [5] > 100 µM | [6] > 100 µM | [7] > 100 µM | [8] > 100 µM | [9] > 100 µM | [10] > 100 µM

COc1ccc(C2S/C(=C\c3ccc(O)cc3)C(=O)N2NC(=O)Cc2ccccc2)cc1 (stereo not given)
inactive: [11] > 100 µM | [1] > 100 µM | [12] > 100 µM | [3] > 100 µM | [4] > 100 µM | [5] > 100 µM | [6] > 100 µM | [13] > 100 µM | [14] > 100 µM | [15] > 100 µM | [7] > 100 µM | [8] > 100 µM | [9] > 100 µM | [10] > 100 µM

CC(=O)N/C(=C\c1ccccc1/C=C(\NC(C)=O)c1nc2cc(C)c(C)cc2[nH]1)c1nc2cc(C)c(C)cc2[nH]1
inactive: [11] 34.8 µM | [1] 24.4 µM | [2] 6.81 µM | [3] 11.5 µM | [5] 11.8 µM | [6] 9.84 µM | [14] 26.7 µM | [15] 19.5 µM | [7] 25.8 µM | [8] 31.1 µM | [9] 18.7 µM

CCN(CC)Cc1cc(Nc2ccnc3ccc4nn(C)nc4c23)ccc1O
inactive: [11] 4.7 µM | [1] 22.4 µM | [2] 28 µM | [12] 13.9 µM | [3] 28.8 µM | [4] 9.25 µM | [5] 10.5 µM | [6] 14.3 µM | [13] 13.6 µM | [14] > 100 µM | [15] 5.02 µM | [7] 22.5 µM | [8] 5.55 µM | [9] 11.8 µM | [10] 7.73 µM

O=C(c1ccccc1)c1ccc2cccc(OC3OC(CO)C(O)C(O)C3O)c2n1 (stereo not given)
inactive: [11] > 100 µM | [1] > 100 µM | [2] > 100 µM | [12] 54.7 µM | [3] > 100 µM | [4] > 100 µM | [5] > 100 µM | [6] > 100 µM | [13] 51.5 µM | [15] > 100 µM | [7] > 100 µM | [8] > 100 µM | [9] > 100 µM | [10] > 100 µM

O=C(/C=C/C1C(=O)NC(=O)NC1=O)CC(=O)C(=O)Nc1cc(Cl)c(Cl)cc1Cl
inactive: [11] > 100 µM | [1] > 100 µM | [2] > 100 µM | [12] > 100 µM | [3] > 100 µM | [4] > 100 µM | [5] > 100 µM | [6] > 100 µM | [13] > 100 µM | [14] > 100 µM | [15] > 100 µM | [7] > 100 µM | [8] > 100 µM | [9] > 100 µM | [10] > 100 µM

CCN1C(C)=NC2C(=O)c3ccccc3C(=O)C21 (stereo not given)
inactive: [11] 28.8 µM | [1] > 100 µM | [2] 81.7 µM | [12] 31.2 µM | [4] > 100 µM | [6] 66.5 µM | [13] 82.2 µM | [14] 47 µM | [15] 33.5 µM | [7] 63 µM | [8] 32.6 µM | [9] 65.5 µM | [10] 46.9 µM

C[C@H](NC(=O)OC1C2C=CC(O)C1CC2)c1ccccc1 (stereo not given in full)
inactive: [11] > 10 µM | [1] > 100 µM | [2] > 100 µM | [12] > 100 µM | [3] > 100 µM | [4] > 100 µM | [5] > 100 µM | [6] 31.1 µM | [13] > 100 µM | [14] 81.1 µM | [15] 40.9 µM | [7] > 100 µM | [9] 38.1 µM | [10] > 100 µM

CON(C)C(=O)CCCO
inactive: [11] > 100 µM | [1] > 100 µM | [2] > 100 µM | [12] > 100 µM | [3] > 100 µM | [4] > 100 µM | [5] > 100 µM | [6] > 100 µM | [13] > 100 µM | [14] > 100 µM | [15] > 100 µM | [7] > 100 µM | [8] > 100 µM | [9] > 100 µM

CCC(=O)O[C@@H]1C2C(OC(C)=O)C34COC(C)([C@@H]3C3C(C[C@]3(C)OC(C)=O)[C@@H](OC(=O)c3ccccc3)C4=O)[C@H](OC(C)=O)[C@@]2(OC(C)=O)C[C@@H]1C (stereo not given in full)
inactive: [11] > 100 µM | [1] 15.1 µM | [2] 14 µM | [12] 87.9 µM | [3] > 100 µM | [5] > 100 µM | [6] 33.9 µM | [13] 12.4 µM | [14] 17.5 µM | [15] 43.5 µM | [7] 20 µM | [8] 47.8 µM | [9] 11.7 µM | [10] 32 µM

COC[C@@H]1Cc2cc(OC)c3c(c2[C@H](c2ccc(OC)c(OC)c2)[C@H]1COC)OCO3 [HYPOPHYLLANTHIN]
inactive: [11] > 100 µM | [1] > 100 µM | [2] > 100 µM | [12] > 100 µM | [4] 42.6 µM | [5] > 100 µM | [6] 50 µM | [13] 57.5 µM | [14] > 100 µM | [15] > 100 µM | [8] > 100 µM | [10] > 100 µM

CCOC(=O)C1=C(C)N(NC(=O)OC)C2(N)N(NC(=O)OC)C(C)=C(C(=O)OCC)C12C#N (stereo not given)
inactive: [11] > 100 µM | [2] > 100 µM | [12] > 100 µM | [3] > 100 µM | [5] > 100 µM | [6] > 100 µM | [13] > 100 µM | [7] > 100 µM | [8] > 100 µM | [9] > 100 µM | [10] > 100 µM

C[C@@H]1CC2(C[C@@H](C)C3[C@@H](CC4(C)CCCC5C6=CC(O)(CC[C@]34C)OC6=CC(=O)OC5(C)C)O2)OC1=O (stereo not given in full)
inactive: [1] > 100 µM | [2] > 100 µM | [4] > 100 µM | [5] > 100 µM | [6] > 100 µM | [15] > 100 µM | [7] > 100 µM | [8] > 100 µM | [9] > 100 µM | [10] > 100 µM

O=[N+]([O-])c1ccc(C2SCc3nc4ccccc4n32)cc1 (stereo not given)
inactive: [11] > 100 µM | [1] 43.4 µM | [2] > 100 µM | [12] 42.4 µM | [3] 61.4 µM | [4] 36.7 µM | [5] 73.3 µM | [13] 32.6 µM | [14] 65.9 µM | [15] > 100 µM | [7] 29.2 µM | [8] > 100 µM | [9] > 100 µM | [10] 74.1 µM

CC1OC(OCC2OC(Oc3c(-c4ccc(O)cc4)oc4cc(O)cc(O)c4c3=O)C(OC3OC(C)C(O)C(O)C3O)C(O)C2O)C(O)C(O)C1O (stereo not given)
inactive: [11] > 100 µM | [1] > 100 µM | [2] > 100 µM | [12] > 100 µM | [3] > 100 µM | [4] > 100 µM | [5] > 100 µM | [6] > 100 µM | [13] > 100 µM | [14] > 51.5 µM | [15] > 46 µM | [7] > 100 µM | [8] > 36.2 µM | [9] > 100 µM | [10] > 63.1 µM

CC(C)N(C(=O)C12C3C4C1C1C4(C#N)C3C12C#N)C(C)C (stereo not given)
inactive: [11] > 100 µM | [1] > 100 µM | [2] > 100 µM | [12] > 100 µM | [3] > 100 µM | [4] > 100 µM | [6] > 100 µM | [13] > 100 µM | [14] > 100 µM | [15] > 100 µM | [7] > 100 µM | [8] > 100 µM | [9] > 100 µM

OCC1O[C@H](O[C@@H]2CCCN3CC(O)C(O)[C@@H]23)C(O)C(O)C1O (stereo not given in full)
inactive: [11] > 100 µM | [1] > 100 µM | [12] > 100 µM | [3] > 100 µM | [5] > 100 µM | [6] > 100 µM | [13] > 100 µM | [14] > 100 µM | [15] > 100 µM | [7] > 100 µM | [8] > 100 µM

COc1ccc(C(=O)C(C(=O)CCC(=O)Nc2cccc(C(F)(F)F)c2)c2ccccc2)cc1 (stereo not given)
inactive: [11] 65.6 µM | [1] > 100 µM | [2] > 100 µM | [12] 62.7 µM | [3] > 100 µM | [5] > 100 µM | [6] > 100 µM | [13] 93.5 µM | [14] 46.8 µM | [15] > 100 µM | [7] > 100 µM | [8] > 100 µM | [9] > 100 µM

CCNC1=Nc2ccccc2-n2c(nn3nc4ccccc4c23)N1CC
inactive: [11] 82.6 µM | [2] > 100 µM | [12] > 100 µM | [4] > 100 µM | [5] 29.6 µM | [6] > 100 µM | [13] 37.3 µM | [14] 80 µM | [15] > 100 µM | [7] > 100 µM | [8] > 100 µM | [9] > 100 µM | [10] > 100 µM

CC1(O)C=CC2CCC1C2O (stereo not given)
inactive: [11] > 100 µM | [1] > 100 µM | [2] > 100 µM | [12] > 100 µM | [3] > 100 µM | [4] 87.5 µM | [5] > 100 µM | [6] > 100 µM | [13] > 100 µM | [14] > 100 µM | [15] 30.3 µM | [7] > 100 µM | [9] 25.4 µM | [10] 21.5 µM

Source: ChEMBL document CHEMBL1201862, “PubChem BioAssay data set” (2004)
